Values quoted from earlier work as cited in article PMC6151732, “A New Noncanonical Anionic Peptide That Translocates a Cellular Blood–Brain Barrier Model” (Molecules : A Journal of Synthetic Chemistry and Natural …, 2017).

Tested on: brain
Description: Dengue virus type-2 capsid (DEN2C) protein-derived membrane-active peptides have been thoroughly studied by our group. […] An additional study was performed using the four α-helical domains of the DEN2C protein (α1, α2, α3 and α4) to identify trans-BBB peptides. […] PepH3, a hydrophobic peptide, is able to transcytose across the cell, while other peptides accumulate inside the endothelial membrane ...

AGILKRW [PepH3]
Brain uptake: high brain uptake
